One assay concerns the target OXA-48 (Klebsiella pneumoniae, UniProt Q6XEC0). The assay is described as follows: In vitro enzyme inhibition assay (nitrocefin hydrolysis), OXA-48. The assay is classed as biochemical. As for the experimental part:
(§1) Compound dilution was performed in DMSO.

Assay [1] has as its system NTBC096.1 (K. pneumoniae strain expressing OXA-181 and SHV-11). In words: Meropenem potentiation, broth micro-dilution MIC, strain NTBC096.1. The assay is classed as cell-based. The following applies: Klebsiella pneumoniae, read-out: MIC mero + 4 μg/mL inhibitor. (Broth dilution looks for growth in wells or tubes with falling amounts of substance.)
Protocol: (§2) The experiments were carried out using the ‘broth micro-dilution method’ according to the protocols M07-A8 established by the Clinical Laboratory Standards Institute (CLSI). […] After incubation for 18-20 hours in a heating chamber at 37° C., the growth inhibition was evaluated by the absence of any bacterial development.
(§3) Compounds of the invention were tested at concentrations of 4 μg/mL.
Assay [2] deals with NTBC091.1 (E. coli strain expressing KPC-2, TEM-1). In words: Meropenem potentiation, broth micro-dilution MIC, strain NTBC091.1. The assay is classed as cell-based.
Protocol: as §2, §3
The next assay concerns the target CTX-M15 (Escherichia coli, UniProt Q9EXV5). The assay is described as follows: In vitro enzyme inhibition assay (nitrocefin hydrolysis), CTX-M15. The assay is classed as biochemical. As for the experimental part: as §1
For assay [3], the system named is NTBC189 (K. pneumoniae strain expressing TEM-OSBL(b), CTX-M-14, OXA-48(c)). In words: Meropenem potentiation, broth micro-dilution MIC, strain NTBC189. As to conditions: Klebsiella pneumoniae, read-out: MIC mero + 4 μg/mL inhibitor.
Protocol: as §2, §3
For assay [4], the system named is NTBC093 (E. cloacae strain expressing KPC-2, TEM-1). In words: Meropenem potentiation, broth micro-dilution MIC, strain NTBC093. The following applies: Enterobacter cloacae, read-out: MIC mero + 4 μg/mL inhibitor.
Protocol: as §2, §3
The subject of assay [5] is NTBC099 (K. pneumoniae strain expressing KPC-3, SHV-11 and TEM-1). The assay is described as follows: Meropenem potentiation, broth micro-dilution MIC, strain NTBC099. As to conditions: Klebsiella pneumoniae, read-out: MIC mero + 4 μg/mL inhibitor.
Protocol: as §2, §3
The target in a further assay is KPC-2 (Klebsiella pneumoniae, UniProt Q9F663). The assay is described as follows: In vitro enzyme inhibition assay (nitrocefin hydrolysis), KPC-2. The assay is classed as biochemical. As for the experimental part:
as §1

Counter-ions that a name gives are not always drawn.

Sequence of CTX-M15 (Q9EXV5 entry or part of it): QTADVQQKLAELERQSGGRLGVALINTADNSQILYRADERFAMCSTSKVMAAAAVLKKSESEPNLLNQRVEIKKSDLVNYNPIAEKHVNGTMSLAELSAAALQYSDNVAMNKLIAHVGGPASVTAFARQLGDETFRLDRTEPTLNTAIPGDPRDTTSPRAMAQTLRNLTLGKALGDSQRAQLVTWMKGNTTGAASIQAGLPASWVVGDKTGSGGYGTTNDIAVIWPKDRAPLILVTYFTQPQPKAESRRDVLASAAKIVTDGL
Sequence of KPC-2 (Q9F663 25-293 limits assumed): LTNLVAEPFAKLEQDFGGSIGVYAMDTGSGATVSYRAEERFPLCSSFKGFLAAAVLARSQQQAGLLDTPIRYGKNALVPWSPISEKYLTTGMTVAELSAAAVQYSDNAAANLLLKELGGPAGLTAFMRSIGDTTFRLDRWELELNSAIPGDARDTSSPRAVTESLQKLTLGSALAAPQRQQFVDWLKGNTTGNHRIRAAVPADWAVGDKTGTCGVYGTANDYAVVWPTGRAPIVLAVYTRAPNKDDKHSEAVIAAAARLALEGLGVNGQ
Sequence of OXA-48 (Q6XEC0 23-265 limits assumed): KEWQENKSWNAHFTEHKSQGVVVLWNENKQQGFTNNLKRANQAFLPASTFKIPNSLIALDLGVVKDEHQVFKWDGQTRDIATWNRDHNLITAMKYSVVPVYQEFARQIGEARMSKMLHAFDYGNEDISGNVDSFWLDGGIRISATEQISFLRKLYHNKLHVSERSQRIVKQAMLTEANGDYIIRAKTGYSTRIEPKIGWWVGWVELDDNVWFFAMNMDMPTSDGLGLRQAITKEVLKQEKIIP

As usually defined, the IC50 is the midpoint of a concentration-inhibition curve. Read a low IC50 as greater potency. In the case of `O=C1N2C[C@@H](CC[C@H]2C(F)F)N1OS(=O)(=O)O` [Example 2, Sodium (2S, 5R)-7-oxo-2-(difluoromethyl)-1,6-diazabicyclo[3.2.1]octan-6-yl sulfate], the results for the IC50 against OXA-48, against CTX-M15 and at KPC-2 were 20 to 100 nM, 5 to 20 nM and less than 10 nM, respectively. In addition, the MIC turned out to be 4 µg/mL in assay [1], 2 µg/mL in assay [3], 0.06 µg/mL in assay [4] and 1 µg/mL in assay [5]. Moreover, the “MIC of meropenem + compound compared with meropenem + avibactam” value in assay [2] (NTBC091.1) is listed as “lower”. Moreover, in assay [2] (NTBC091.1, MIC of meropenem with 4 μg/mL of the labelled inhibitor, band), the “MIC mero + 4 μg/mL inhibitor (banded)” value is reported as “(A) (1 μg/mL)”.

The values are drawn from patent US11905286B2, “Diazabicyclooctanones as inhibitors of serine beta-lactamases” (priority 2018, dated 2024).
